Source: US10334849B2, “Salts of carboxylic acid herbicides” (Monsanto Technology LLC, priority 2011, dated 2019)
Read-outs that look alike come from different tables or passages of the source.

Key:
velvetleaf (ABUTH) = details: 21 days after treatment
Procedure: In this example, the herbicidal effectiveness of selected dicamba salts prepared in accordance with Example 1 was evaluated in greenhouse testing. The herbicidal effectiveness data set forth herein report “Weed killing efficacy” as a percentage following a standard procedure in the art which reflects a visual assessment of plant mortality and growth reduction by comparison with untreated plants, made by technicians specially trained to make and record such observations. Such measurements are relied upon and regularly reported by Monsanto Company in the course of its herbicide business.
The following procedure was used for testing compositions of this example to determine herbicidal effectiveness.
Seeds of velvetleaf (ABUTH) were planted in 85 mm square pots in a soil mix which was previously steam sterilized and prefertilized with a 14-14-14 NPK slow release fertilizer at a rate of 3.6 kg/m^3. The pots were placed in a greenhouse with sub-irrigation. About one week after emergence, seedlings were thinned as needed, including removal of any unhealthy or abnormal plants, to create a uniform series of test pots.
The plants were maintained for the duration of the test in the greenhouse where they received a minimum of 14 hours of light per day. If natural light was insufficient to achieve the daily requirement, artificial light with an intensity of approximately 475 microeinsteins was used to make up the difference. Exposure temperatures were not precisely controlled but averaged about 27° C. during the day and about 21° C. during the night. Plants were sub-irrigated throughout the test to ensure adequate soil moisture levels.
Application of herbicide salt solutions were made by spraying with a track sprayer fitted with a 9501E nozzle calibrated to deliver a spray volume of approximately 38 liters per hectare (l/ha). After treatment, pots were returned to the greenhouse until ready for evaluation.
For evaluation of herbicidal effectiveness, all plants in the test were examined by a single practiced technician, who recorded percent control, a visual measurement of the effectiveness of each treatment by comparison with untreated plants. […] Control of 85% or more is in most cases considered acceptable for normal herbicide use. […] The weed killing efficacy was evaluated 21 days after the treatment.

[1] = Tube test: dicamba volatilized from spray solution into air; assay type: physicochemical; details: air about 35° C., about 40% RH, 24 hours
Procedure: Volatility reduction may be quantified experimentally by methods known in the art. In one method the volatility of solutions containing a herbicide salt can be measured in the gas phase (air) via tube tests. In a tube test, a sample of the herbicide solution is placed in a test tube that has been modified to allow air flow through the tube. A selective collection medium is attached to the outlet of the tube to collect volatilized herbicide. The collection medium is then analyzed for the respective herbicide. For further details see the Tube Test Protocol described in Example 2.
(§1) In this example, various salts of dicamba prepared in Example 1 were selected for volatility testing. As described below, spray solutions containing the selected dicamba salts were prepared and subjected to volatility testing via the tube test and/or humidome protocols. Typically, the spray solutions containing the selected dicamba salts also contained potassium glyphosate co-herbicide. Aqueous test spray solutions containing selected salts of dicamba and potassium glyphosate were prepared by mixing a solution of dicamba salt with a solution of potassium glyphosate salt and adjusting the relative proportion and/or diluting with water to arrive at the desired concentration of dicamba and glyphosate.
To measure the dicamba concentration in the gas phase (air) volatilized from the spray solutions, 10 mL samples of each solution were placed into a 50 mL plastic centrifuge tube with one hole approximately ⅛ in (3.2 mm) diameter drilled into the tube at the mark between 20 mL and 30 mL lines. A 22 mm×30 mm polyurethane foam (PUF), cut from a 76 mm length, available from SKC Inc., catalog #P22692, was placed into a glass tube of approximately 20 mm diameter with parafilm wrapped around the outside to obtain a snug fit into the top of the centrifuge tube. A hose was connected to the other end of the glass tube leading to a vacuum line. The air flow was regulated to approximately 2 L/min using a flow controller. Air was pulled through the tube at approximately 2 L/min for 24 hours. Note that the air conditions of flow rate, temperature, pressure and composition (e.g., relative humidity) are not narrowly critical as long as the various samples are analyzed under similar conditions. For instance, air at from about 5° C. to about 40° C., from about 0.5 to about 1.5 bar pressure, from about 0% to about 95% relative humidity, and at a flow rate of from about 0.1 to 10 L/min-mL sample could be suitably used for volatility analysis. In this test, the air pulled through the tubes was at about 35° C. and about 40% relative humidity. The PUF was removed from the glass tube, extracted with 20 mL methanol and the resulting solution analyzed for dicamba concentration using liquid chromatography-mass spectroscopy (LC-MS) methods known in the art.
For comparison, samples of spray solutions containing 2 wt. % a.e. of the diglycolamine salt of dicamba (i.e., CLARITY) were also subjected to the tube test protocol.
(§2) The reduction in volatility is calculated relative to the volatility of the samples containing the diglycolamine salt of dicamba.

[2] = Humidome test: dicamba volatilized into air from spray solution applied to soil; assay type: physicochemical; details: sprayed on soil at 10 GPA, 24 hours, vs CLARITY without glyphosate
Text: In another method, the volatility of solutions containing a herbicide salt can be evaluated by measuring herbicide concentrations in the gas phase (air) through air sampling in humidome plant growth chambers, which are maintained at constant temperature and humidity. For further details see the Humidome Protocol described in Example 2.
as §1
Humidomes were obtained from Hummert International (Part Nos 14-3850-2 for humidomes and 11-3050-1 for 1020 flat tray) and modified by cutting a 2.2 cm diameter hole on one end approximately 5 cm from the top to allow for insertion of a glass air sampling tube (22 mm OD) containing a polyurethane foam (PUF) filter. The sampling tube was secured with a VITON o-ring on each side of the humidome wall. The air sampling tube external to the humidome was fitted with tubing that was connected to a vacuum manifold immediately prior to sampling.
The flat tray beneath the humidome was filled with 1 liter of sifted dry or wet 50/50 soil (50% Redi-Earth and 50% US 10 Field Soil) to a depth of about 1 cm. To measure the dicamba concentration in the gas phase (air) volatilized from the spray solutions, samples of the spray solutions were sprayed over the soil in the humidome using a track sprayer at a rate of 10 gallons per acre (GPA). To avoid contamination of the sides of the flat tray, each tray was nested in an empty tray prior to spraying.
The flat tray bottom containing the dicamba formulation on soil was covered with a humidome lid and the lid was secured with clamps. The assembled humidomes were placed in a temperature and humidity controlled environment and connected to a vacuum manifold through the air sampling line. Air was drawn through the humidome and PUF at a rate of 2 liters per minutes (LPM) for 24 hours at which point the air sampling was stopped. The humidomes were then removed from the controlled environment and the PUF filter was removed. The PUF filter was extracted with 20 mL of methanol and the solution was analyzed for dicamba concentration using LC-MS methods known in the art.
For comparison, samples of spray solutions containing the diglycolamine salt of dicamba (i.e., CLARITY) at approximately the same weight percent a.e. as the tested dicamba salt sprays were subjected to the humidome tests.
as §2

[3] = dicamba salt 2 wt. % a.e., potassium glyphosate 6 wt. % a.e., vs 2 wt. % a.e. CLARITY without glyphosate
[4] = dicamba salt 0.6 wt. % a.e., potassium glyphosate 0.9 wt. % a.e.
[5] = dicamba salt 0.6 wt. % a.e., potassium glyphosate 1.2 wt. % a.e.

Row | SMILES | Volatility Reduction Over DGA Dicamba Spray (%) Tube Test [1, 3] [%] | Volatility Reduction Over DGA Dicamba Spray (%) Humidome Test [2, 4] [%] | also measured
1 | CCc1ncc[nH]1.COc1c(Cl)ccc(Cl)c1C(=O)O [2-ethyl imidazolium dicamba] | – | – | Weed killing efficacy (%) (velvetleaf (ABUTH); application rate 140 g a.e./ha): 38.3%; Weed killing efficacy (%) (velvetleaf (ABUTH); application rate 280 g a.e./ha): 67.5%; Weed killing efficacy (%) (velvetleaf (ABUTH); application rate 560 g a.e./ha): 80.8%
2 | CCc1nc(C)c[nH]1.COc1c(Cl)ccc(Cl)c1C(=O)O [2-ethyl-4-methyl imidazolium dicamba] | – | – | Weed killing efficacy (%) (velvetleaf (ABUTH); application rate 140 g a.e./ha): 30.0%; Weed killing efficacy (%) (velvetleaf (ABUTH); application rate 280 g a.e./ha): 62.5%; Weed killing efficacy (%) (velvetleaf (ABUTH); application rate 560 g a.e./ha): 83.3%
3 | COc1c(Cl)ccc(Cl)c1C(=O)O.Cc1ncc[nH]1 [2-methyl imidazolium dicamba] | – | – | Weed killing efficacy (%) (velvetleaf (ABUTH); application rate 140 g a.e./ha): 40.0%; Weed killing efficacy (%) (velvetleaf (ABUTH); application rate 280 g a.e./ha): 66.7%; Weed killing efficacy (%) (velvetleaf (ABUTH); application rate 560 g a.e./ha): 85.0%
4 | C1CCC(N2CCNCC2)CC1.COc1c(Cl)ccc(Cl)c1C(=O)O [Salt 3] | 75 | – | –
5 | COc1c(Cl)ccc(Cl)c1C(=O)O.OCCN1CCNCC1 [Salt 4] | 69 | – | –
6 | CCCCN1CCNCC1.COc1c(Cl)ccc(Cl)c1C(=O)O [Salt 5] | 70 | – | –
7 | CCN1CCNCC1.COc1c(Cl)ccc(Cl)c1C(=O)O [Salt 6] | 83 | – | –
8 | CC(C)c1ncc[nH]1.COc1c(Cl)ccc(Cl)c1C(=O)O [Salt 9] | 65 | 63 | Volatility Reduction Over DGA Dicamba Spray (%) Humidome Test [2, 5]: 67%
9 | CCc1nc(C)c[nH]1.COc1c(Cl)ccc(Cl)c1C(=O)O [Salt 10] | 72 | 86 | Volatility Reduction Over DGA Dicamba Spray (%) Humidome Test [2, 5]: 85%; Volatility Reduction Over DGA Dicamba Spray (%) Humidome Test ([2]; dicamba salt 2.4 wt. % a.e., potassium glyphosate 4.8 wt. % a.e.): 86%; Volatility Reduction Over DGA Dicamba Spray (%) Tube Test ([1]; dicamba salt 10 wt. % a.e., no potassium glyphosate, vs 2 wt. % a.e. CLARITY): 88%
10 | CCc1ncc[nH]1.COc1c(Cl)ccc(Cl)c1C(=O)O [Salt 11] | 67 | 67 | Volatility Reduction Over DGA Dicamba Spray (%) Humidome Test [2, 5]: 60%
11 | COc1c(Cl)ccc(Cl)c1C(=O)O.Cc1ncc[nH]1 [Salt 12] | – | 46 | Volatility Reduction Over DGA Dicamba Spray (%) Humidome Test [2, 5]: 50%
12 | COc1c(Cl)ccc(Cl)c1C(=O)O.Cc1c[nH]c(-c2ccccc2)n1 [Salt 14] | – | 92 | –
13 | CCCN1CCC(=O)CC1.COc1c(Cl)ccc(Cl)c1C(=O)O [Salt 16] | 20 | – | –
14 | CC(C)CN1CCC(=O)CC1.COc1c(Cl)ccc(Cl)c1C(=O)O [Salt 17] | 57 | – | –
15 | C1CCN(C2CCNCC2)CC1.COc1c(Cl)ccc(Cl)c1C(=O)O.COc1c(Cl)ccc(Cl)c1C(=O)O [Salt 19] | 23 | – | –
16 | C(CC1CCNCC1)CC1CCNCC1.COc1c(Cl)ccc(Cl)c1C(=O)O.COc1c(Cl)ccc(Cl)c1C(=O)O [Salt 22] | 60 | 68 | –
17 | CN1CCN(C)CC1.COc1c(Cl)ccc(Cl)c1C(=O)O [Salt 23] | 23 | – | –
18 | COc1c(Cl)ccc(Cl)c1C(=O)O.OCCN1CCN(CCO)CC1 [Salt 24] | 57 | 76 | –
